Measured values from patent US5955055A, “Synthetic peptides for arterial imaging at vascular imaging sites” (New England Deaconess Hospital Corporation, priority 1995, dated 1999).
Ends that are not written are not given here.

Tests used:
[1] = Plasma decay of 125I-labelled synthetic peptide after injection into the marginal ear vein; format: in vivo, rabbit; settings: at four hours
Description: Each labelled synthetic peptide preparation (containing, for example, 150 to 400 or more μCi of ^125 I-labelled peptide) in column elution buffer was injected into the marginal ear vein of the ballooned and healing New Zealand white rabbits or WHHL rabbits. Serial blood samples were obtained from the opposite ear during the ensuing 0-24 hours and were analyzed for radioactivity. The labelled peptide concentrations in the blood samples that were withdrawn over the first 10 minutes after injection were extrapolated to zero time to determine the time zero radioactivity in the calculation of average plasma radioactivity. […] Peptides SP15a, SP17, SP19a, SP21a, SP28, SP34a, and SP30 were cleared rapidly from the plasma with half-lives of about one minute or less; after one hour, the plasma levels were less than 10% of the injected dose and fell by an additional 1% over the next three hours. Peptides SP15a, SP17, SP21a, SP28, SP34a, and SP30 leveled off to a plasma level of 3-6%; peptide SP19a cleared more quickly and leveled off to a concentration of 0.3% (at four hours).
Control peptides used were SP-2 (part of the heparin and LDL receptor binding site of apolipoprotein E) and SP-11A which is a receptor and heparin binding domain of apolipoprotein B. To compare the relative accumulation of the ^125 I-labelled synthetic peptides in the aorta and adrenal gland, it was necessary to correct for differences in mean plasma concentration of the labelled compounds. The mean concentration of synthetic peptide-associated ^125 I radioactivity was calculated by numerical integration of the plasma decay curves and division by the time since injection of the isotope.

[2] = test system: anti-SP-4 antiserum; experiment: ELISA for immunological cross-reactivity with anti-SP-4 antiserum; format: binding, rabbit; settings: ELISA plates coated with LDL or peptide, 100 ng per well
Description: To determine whether the molecular conformation or structure of the synthetic apoB peptides was analogous to the conformation of the apoB moiety of LDL, a polyclonal antiserum was raised to each peptide and its ability to bind LDL tested. Antiserum raised to human LDL was used as the control. To produce anti-synthetic peptide antisera, purified synthetic peptide was dissolved in PBS, pH 7.4 at a concentration of 1 mg/ml. The peptide solution was mixed with an equal volume of complete Freund's adjuvant and vortexed thoroughly until a thick emulsion was produced. New Zealand White rabbits (Millbrook Farms, Amherst, Mass.) were injected with a total of 0.5 mg synthetic peptide administered subcutaneously in the four dorsal quadrants. The rabbits were given a boost (injected at the same sites) with 0.5 mg peptide emulsified in incomplete Freund's adjuvant 2-3 weeks later. Eight to ten days after the first boost, the animals were given a second, identical boost and were bled of 30 ml 8 to 10 days later. To test for immunological cross-reactivity microtiter plates (Immulon II Dynatech Labs, Chantilly, Va.) were coated with the purified synthetic peptide or LDL by an overnight incubation at 4° C. with 100 ng peptide per well in 50 mM carbonate, pH 9.6, and blocked for nonspecific binding with an additional overnight incubation with phosphate-buffered saline, pH 7.4 (PBS), 1% bovine serum albumin (BSA). Control wells were coated with BSA alone. After washing twice with PBS, the wells were filled with serial dilutions (1:10 to 1:100,000 made in PBS, 3% BSA) of a rabbit polyclonal antibody generated against the synthetic peptide(s) and incubated for 45 minutes at room temperature. Following thorough washing (3× with PBS, 0.1% BSA), the wells were filled with a 1:2000 dilution of goat anti-rabbit IgG-horseradish peroxidase conjugate (Atlantic Antibodies, Scarborough, Me.). After a final wash, the wells were filled with 3,3'-5,5'-tetramethybenzidine (TMB) microwell peroxidase substrate (Kirkegaard and Perry Labs, Gaithersburg, Md.) and read at 650 nm every two minutes on an ELISA-5 automated plate reader (Physica, New York, N.Y.). Results (see, e.g., FIGS. 4 and 5) are expressed as the initial velocity of substrate conversion (change in OD650 /hr), which is determined by a linear regression of 15 data points per well. Each data point represents the average of three measured data points from the same plate, run at the same time.

For “YVGVAPGVGVAPGVGVAPG [SP-28, H2 N-Tyr-Val-Gly-Val-Ala-Pro-Gly-val-Gly-Val-Ala-Pro-Gly-Val-Gly-Val-Ala-Pro- Gly-OH]”, the “Plasma level at which the peptide leveled off” value (shortened to “Plasma level”) [1] was 3-6%.
For “YAALDLNAVANKIADFEL-NH2 [SP-17, H2 N-Tyr-Ala-Ala-Leu-Asp-Leu-Asn-Ala-Val-Ala-Asn-Lys-Ile-Ala-Asp-Phe-Glu-Leu- CONH2]”, the “Plasma level” value [1] was 3-6%.
In the case of “Ac-YRALVDTLKFVTEQAKGA-NH2 [SP-19a, CH3 CONH-Tyr-Arg-Ala-Leu-Val-Asp-Thr-Leu-Lys-Phe-Val-Thr-Glu-Gln-Ala-Lys-Gly-Ala-CONH2]”, the “Plasma level” value [1] is reported as 0.3%.
With “Ac-YKLALEAARLLADAEGAK-NH2 [SP-6A, CH3 CONH-Tyr-Lys-Leu-Ala-Leu-Glu-Ala-Ala-Arg-Leu-Leu-Ala-Asp-Ala-Glu-Gly-Ala-Lys-CONH2]” the “Binding of anti-SP-4 antiserum to coated antigen” value (“Binding of anti-SP-4 antiserum” below) [2] was “shown to bind”.
With “Ac-YRALVDTLK-NH2 [SP-14A, CH3 CONH-Tyr-Arg-Ala-Leu-Val-Asp-Thr-Leu-Lys-CONH2]” the “Binding of anti-SP-4 antiserum” value [2] was “shown to bind”.
For “Ac-YAKFRETLEDTRDRMY-NH2 [SP-15a, CH3 CONH-Tyr-Ala-Lys-Phe-Arg-Glu-Thr-Leu-Glu-Asp-Thr-Arg-Asp-Arg-Met-Tyr-CONH2]”, the “Plasma level” value [1] was 3-6%.
With “YVPGVGVPGVGVPGVGVPGVG-NH2 [SP-30, H2 N-Tyr-Val-Pro-Gly-Val-Gly-Val-Pro-Gly-Val-Gly-Val-Pro-Gly-Val-Gly-Val-Pro- Gly-Val-Gly-CONH2]” the “Plasma level” value [1] was 3-6%.
For “Ac-YKLALEAARLLANAEGAK-NH2 [SP-8A, CH3 CONH-Tyr-Lys-Leu-Ala-Leu-Glu-Ala-Ala-Arg-Leu-Leu-Ala-Asn-Ala-Glu-Gly-Ala-Lys-CONH2]”, the “Binding of anti-SP-4 antiserum” value [2] was “shown to bind”.
With “Ac-YRALVDTLKFVTQAEGAK-NH2 [SP-4A, CH3 CONH-Tyr-Arg-Ala-Leu-Val-Asp-Thr-Leu-Lys-Phe-Val-Thr-Gln-Ala-Glu-Gly-Ala-Lys-CONH2]” the “Binding of anti-SP-4 antiserum” value [2] was “shown to bind”.
In the case of “Ac-YRALVDTEFKVKQEAGAK-NH2 [SP-21a, CH3 CONH-Tyr-Arg-Ala-Leu-Val-Asp-Thr-Glu-Phe-Lys-Val-Lys-Gln-Glu-Ala-Gly-Ala-Lys-CONH2]”, the “Plasma level” value [1] is reported as 3-6%.
With “YRALVDTLKFVTQAEGAK-NH2 [SP-4, NH2 -Tyr-Arg-Ala-Leu-Val-Asp-Thr-Leu-LYs-Phe-Val-Thr-Gln-Ala-Glu-Gly-Ala-Lys-CONH2]” the “Binding of anti-SP-4 antiserum” value [2] was “shown to bind”.
With “YKLALEAARLLADAEGAK-NH2 [SP-6, H2 N-Tyr-Lys-Leu-Ala-Leu-Glu-Ala-Ala-Arg-Leu-Leu-Ala-Asp-Ala-Glu-Gly-Ala-Lys- CONH2]” the “Binding of anti-SP-4 antiserum” value [2] was “shown to bind”.
For “Ac-YRALVDYLKFVTQL-NH2 [SP-12A, CH3 CONH-Tyr-Arg-Ala-Leu-Val-Asp-Tyr-Leu-Lys-Phe-Val-Thr-Gln-Leu-CONH2]”, the “Binding of anti-SP-4 antiserum” value [2] was “shown to bind”.
For “YKLALEAARLLANAEGAK-NH2 [SP-8, H2 N-Tyr-Lys-Leu-Ala-Leu-Glu-Ala-Ala-Arq-Leu-Leu-Ala-Asn-Ala-Glu-Gly-Ala-Lys- CONH2]”, the “Binding of anti-SP-4 antiserum” value [2] was “shown to bind”.
For Ac-YVLDEFREKLNEELEALKQK-NH2 [SP-34a], the “Plasma level” value [1] was 3-6%.
